Measurements reported in US10730825B2, “Methods for the treatment of diabetic retinopathy and other ophthalmic diseases” (Acucela Inc., priority 2012, dated 2020).

What was measured:
VEGF = VEGF up-regulation caused by hypoxic conditions; format: in vivo; conditions: for VEGF mRNA levels: compared to vehicle control
Method: FIG. 8 depicts a protocol used to test if ACU-4935 reduced VEGF up-regulation caused by hypoxic conditions. Briefly, animals were adapted for dark for 16 hours, then dosed with ACU-4935. Animals were photobleached for 10 minutes with 50000 Lux 2 hours after being dosed, followed by a 2 hour recovery in the dark. Hypoxia was induced with 6% O2 for 6 hours. A portion of the animals were euthanized and samples were collected at time 0. Another portion of the animals were returned to the dark for 2 more hours prior to being euthanized and sample collection.
Samples were tested for VEGF protein (FIG. 9) and mRNA expression (FIG. 10).

visual cycle isomerase [1] = molecular target: T1, visual cycle isomerase (Homo sapiens, UniProt Q16518); assay: in vitro isomerase activity; format: biochemical
T1 sequence (Q16518 1-533): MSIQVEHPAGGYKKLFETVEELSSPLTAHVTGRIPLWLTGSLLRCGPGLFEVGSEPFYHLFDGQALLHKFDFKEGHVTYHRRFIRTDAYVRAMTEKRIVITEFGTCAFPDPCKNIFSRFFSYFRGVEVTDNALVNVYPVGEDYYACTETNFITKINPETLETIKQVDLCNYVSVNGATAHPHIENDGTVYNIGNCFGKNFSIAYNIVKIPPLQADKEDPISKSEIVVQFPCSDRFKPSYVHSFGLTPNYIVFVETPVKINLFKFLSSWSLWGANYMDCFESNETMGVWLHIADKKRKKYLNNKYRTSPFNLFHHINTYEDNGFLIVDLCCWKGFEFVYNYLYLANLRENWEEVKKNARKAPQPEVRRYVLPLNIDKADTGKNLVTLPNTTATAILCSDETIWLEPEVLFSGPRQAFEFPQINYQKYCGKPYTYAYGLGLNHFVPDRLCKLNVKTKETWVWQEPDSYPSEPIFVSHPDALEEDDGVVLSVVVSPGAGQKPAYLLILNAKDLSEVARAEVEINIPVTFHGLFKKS

visual cycle isomerase [2] = molecular target: T2, visual cycle isomerase (Mus musculus, UniProt Q91ZQ5); assay: in vivo isomerase assay single dose, mice
T2 sequence (Q91ZQ5 1-533): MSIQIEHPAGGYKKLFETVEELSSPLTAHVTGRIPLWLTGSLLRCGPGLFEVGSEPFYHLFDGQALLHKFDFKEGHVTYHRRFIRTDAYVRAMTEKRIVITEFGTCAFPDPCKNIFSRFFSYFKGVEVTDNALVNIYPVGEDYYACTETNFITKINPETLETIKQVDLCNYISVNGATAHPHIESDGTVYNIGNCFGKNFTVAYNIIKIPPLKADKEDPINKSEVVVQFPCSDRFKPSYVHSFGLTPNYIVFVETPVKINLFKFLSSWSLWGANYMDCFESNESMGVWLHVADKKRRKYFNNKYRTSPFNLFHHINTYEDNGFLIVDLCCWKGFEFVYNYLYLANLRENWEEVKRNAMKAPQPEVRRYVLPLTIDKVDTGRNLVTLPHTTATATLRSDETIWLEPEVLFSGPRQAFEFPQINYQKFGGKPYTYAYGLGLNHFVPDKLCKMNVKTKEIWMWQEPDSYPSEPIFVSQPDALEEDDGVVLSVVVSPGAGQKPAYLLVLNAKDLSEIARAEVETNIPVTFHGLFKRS

[3] = system: retinal neovascularization; assay: Retinal neovascularization in mouse model of oxygen-induced retinopathy (OIR); conditions: OIR mice; for Retinal neovascular area reduced: 4 days
Method: Pups were euthanized on P17, when neovascularization was maximal and eyes were removed for analysis.
Areas of retinal neovascularization were visualized with isoelectin staining of flatmount preparations and quantified with the lasso tool in Adobe Photoshop; total area of neovascularization indicated the sum of individual areas across the retina, and % neovascularization was relative to the total area of the retina^4.
Statistical analyses were performed using GraphPad Prism software.

[4] = system: retinal cationic activity (Mn2+ uptake); assay: Manganese-enhanced MRI (MEMRI) single dose study; conditions: rats, Mn2+ uptake by MRI
Method: Rats are to be maintained in regular laboratory lighting (12 hours light, 12 hours dark) prior to start of experimental period—light exposure, bleaching, dark adaption will vary by cohort (see below).
Animals are to be dosed by oral gavage according to group assignment below. Rats are to be weighed each week of the experimental period.
Dilate pupils by applying 1 drop of tropicamide (0.5%) 10-30 minutes before photobleaching. Photobleach animals for 10 minutes by exposure to 5000 lux 4 hours before MRI imaging.
Inject rats immediately after bleach, 4 hours prior to the start of imaging session. MEMRI signal reflects state of expression of activity-dependent channels during experimental period.
Keep rats in dark (IOP room) during the 4 hours between injection and transport to the imaging center for practice experiments for all groups except group 4. Keep animals from group 4 exposed to light during 4 hours between MnCl2 injection and MRI imaging. Otherwise follow light-dark-bleaching cycle described for each cohort.
A snapshot FLASH inversion recovery (IR) imaging sequence is used to acquire a single imaging slice bisecting the retina in the axial and sagittal planes, using a 12 mm inner diameter linear surface coil. […] The approximate scan time per animal is ˜16 minutes. […]

With CCCC(CCC)COc1cccc([C@H](O)CCN)c1 [ACU-4935, (R)-3-amino-1-(3-(2-propylpentyloxy)phenyl)propan-1-ol] the “VEGF mRNA levels” value (VEGF; 2 hours post-hypoxia) was “slightly increased”, the VEGF protein expression (VEGF; after 6% O2 for 6 hours, vs vehicle) was “Slight differences” and the “VEGF mRNA levels” value (VEGF; time 0 after hypoxia) was “decreased”. For the same molecule, the IC50 (visual cycle isomerase [1]) was 5.2 nM, the ED50 (visual cycle isomerase [2]) was 0.4 µg/kg and the “Retinal neovascular area reduced” value ([3]; 0.3 mg/kg/day intraperitoneal, vs vehicle) was 23%. The “Retinal neovascular area compared to treatment with vehicle” value [3] was “significantly reduced”.

CC(=O)NCC=C(C)C=CC=C(C)C=CC1=C(C)CCCC1(C)C [Retinyl acetamide] was tested, and the “Retinal behaviour after bleach and dark adaptation (expectation)” value [4] was “behave as if they were light adapted”.

With CN(C)C[C@@H]1CCn2cc(c3ccccc32)C2=C(C(=O)NC2=O)c2cn(c3ccccc23)CCO1 [Ruboxistaurin, reference compound] the “Retinal neovascular area reduced” value ([3]; 10 mg/kg/day intraperitoneal, positive control) was 29%.
